The values below come from ChEMBL document CHEMBL5143507, “Small Molecule Kinase Inhibitor Drugs (1995-2021): Medical Indication, Pharmacology, and Synthesis” (J Med Chem, 2022).

One may read the IC50 as the concentration that gives 50% inhibition. A lower IC50 goes with inhibition by little substance.

Test [1] concerns the target Receptor tyrosine-protein kinase erbB-2 (Homo sapiens, UniProt P04626). Put plainly: Inhibition of N-terminal GST fused HER2 (679 to 1255 residues) (unknown origin) using poly (Glu-Tyr) E4Y1 peptide as substrate measured after 4 hrs by ADP-Glo reagent method. (ADP-Glo turns the ADP formed in a reaction into a luminescent signal.)
Test [2] concerns the target Epidermal growth factor receptor (Homo sapiens, UniProt P00533). Put plainly: Inhibition of N-terminal GST fused EGFR (668 to 1091 residues) (unknown origin) using poly (Glu-Tyr) E4Y1 peptide as substrate incubated for 2 hrs by ADP-Glo reagent method.

Sequence of Receptor tyrosine-protein kinase erbB-2 (P04626 whole entry, the tested form may be a part): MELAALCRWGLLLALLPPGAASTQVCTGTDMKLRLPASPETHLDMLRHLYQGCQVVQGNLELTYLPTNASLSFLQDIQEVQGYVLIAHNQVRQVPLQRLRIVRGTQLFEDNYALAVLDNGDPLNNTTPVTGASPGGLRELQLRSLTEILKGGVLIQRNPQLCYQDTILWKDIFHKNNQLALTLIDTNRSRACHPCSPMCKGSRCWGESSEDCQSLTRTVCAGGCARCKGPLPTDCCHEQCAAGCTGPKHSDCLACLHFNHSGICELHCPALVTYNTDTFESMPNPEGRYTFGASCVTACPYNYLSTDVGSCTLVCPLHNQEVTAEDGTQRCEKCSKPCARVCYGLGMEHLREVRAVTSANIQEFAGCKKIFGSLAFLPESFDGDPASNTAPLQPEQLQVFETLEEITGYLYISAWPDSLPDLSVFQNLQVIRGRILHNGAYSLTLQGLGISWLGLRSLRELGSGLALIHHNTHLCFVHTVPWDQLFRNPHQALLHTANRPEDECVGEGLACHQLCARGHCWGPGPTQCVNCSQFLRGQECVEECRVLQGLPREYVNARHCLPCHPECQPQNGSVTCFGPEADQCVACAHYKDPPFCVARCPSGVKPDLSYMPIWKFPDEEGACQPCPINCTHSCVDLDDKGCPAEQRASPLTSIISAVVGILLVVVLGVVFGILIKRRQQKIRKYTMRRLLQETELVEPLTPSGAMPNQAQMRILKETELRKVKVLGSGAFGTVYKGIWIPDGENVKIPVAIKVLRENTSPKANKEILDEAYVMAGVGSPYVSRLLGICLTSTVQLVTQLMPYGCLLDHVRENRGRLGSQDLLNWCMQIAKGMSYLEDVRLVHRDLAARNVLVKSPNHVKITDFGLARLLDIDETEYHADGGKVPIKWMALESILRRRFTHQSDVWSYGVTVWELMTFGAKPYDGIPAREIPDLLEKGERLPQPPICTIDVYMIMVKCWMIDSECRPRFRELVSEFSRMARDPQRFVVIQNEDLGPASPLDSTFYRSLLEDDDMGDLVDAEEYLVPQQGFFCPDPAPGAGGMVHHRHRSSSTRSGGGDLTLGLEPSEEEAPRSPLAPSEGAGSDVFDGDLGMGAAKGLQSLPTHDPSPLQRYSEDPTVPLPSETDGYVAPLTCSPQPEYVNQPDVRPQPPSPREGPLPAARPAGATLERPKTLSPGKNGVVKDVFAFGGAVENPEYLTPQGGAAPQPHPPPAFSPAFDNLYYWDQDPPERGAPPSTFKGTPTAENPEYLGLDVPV
Sequence of Epidermal growth factor receptor (P00533 whole entry, the tested form may be a part): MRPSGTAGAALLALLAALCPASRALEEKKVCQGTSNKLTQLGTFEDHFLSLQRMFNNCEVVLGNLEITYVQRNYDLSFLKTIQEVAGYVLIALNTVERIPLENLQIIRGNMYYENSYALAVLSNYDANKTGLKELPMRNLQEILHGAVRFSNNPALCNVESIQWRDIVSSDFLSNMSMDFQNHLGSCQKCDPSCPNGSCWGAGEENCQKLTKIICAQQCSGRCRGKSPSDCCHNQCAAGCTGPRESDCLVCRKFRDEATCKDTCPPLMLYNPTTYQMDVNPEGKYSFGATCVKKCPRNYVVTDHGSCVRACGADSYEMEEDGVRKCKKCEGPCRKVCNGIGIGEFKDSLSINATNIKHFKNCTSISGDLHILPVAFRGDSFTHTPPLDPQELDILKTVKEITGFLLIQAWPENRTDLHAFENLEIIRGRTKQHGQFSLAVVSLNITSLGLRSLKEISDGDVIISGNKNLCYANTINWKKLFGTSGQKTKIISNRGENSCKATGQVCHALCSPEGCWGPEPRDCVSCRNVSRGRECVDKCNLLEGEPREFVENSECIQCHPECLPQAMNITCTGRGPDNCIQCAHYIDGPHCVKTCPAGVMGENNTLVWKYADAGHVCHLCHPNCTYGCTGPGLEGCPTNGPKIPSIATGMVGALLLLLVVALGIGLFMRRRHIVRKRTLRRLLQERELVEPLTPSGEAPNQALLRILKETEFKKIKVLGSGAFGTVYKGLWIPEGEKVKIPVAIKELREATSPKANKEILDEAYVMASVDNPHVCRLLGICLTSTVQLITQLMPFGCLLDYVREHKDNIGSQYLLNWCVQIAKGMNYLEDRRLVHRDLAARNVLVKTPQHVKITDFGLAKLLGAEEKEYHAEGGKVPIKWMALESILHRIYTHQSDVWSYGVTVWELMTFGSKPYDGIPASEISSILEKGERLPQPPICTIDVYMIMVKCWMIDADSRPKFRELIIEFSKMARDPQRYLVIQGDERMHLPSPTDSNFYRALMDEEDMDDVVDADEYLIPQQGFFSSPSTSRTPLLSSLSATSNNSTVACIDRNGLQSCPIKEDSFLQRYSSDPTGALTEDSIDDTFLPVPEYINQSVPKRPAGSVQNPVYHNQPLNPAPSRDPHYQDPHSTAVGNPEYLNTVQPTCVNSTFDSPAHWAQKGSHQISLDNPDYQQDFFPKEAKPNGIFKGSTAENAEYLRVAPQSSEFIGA

For the molecule `Cc1cc(Nc2ncnc3ccc(NC4=NC(C)(C)CO4)cc23)ccc1Oc1ccn2ncnc2c1` [TUCATINIB], the IC50 stood at 6.9 nM in test [1] and 449 nM in test [2].
